Measurements: PubChem BioAssay AID1963442 (Molecular Pharmacology Branch, DTP, NCI, 2024)
Several values for one entry are separate records, joined by “and”; a condition that tells them apart may be missing. Equal values may be shown once.

Tested on: MPNST complex spheroid with HUVEC/MSC, growth, % test/control
Assay: Anticancer human tumor MPNST cell line growth inhibition [Asc];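 further: compounds left on spheroids for seven days before reading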
Details: for viability, T/C: stronger effect = lower value
Protocol: Multicellular complex tumor spheroid response to apoptosis pathway targeting inhibitors Alrizomadlin, Pelcitoclax, and Dasminapant in combination with a variety of drugs and investigational agents in selected tumor cell lines
The MDM2 inhibitor alrizomadlin, the Bcl-2/Bcl-xL inhibitor pelcitoclax, and the IAPs inhibitor dasminapant were evaluated both individually and in combination with standard of care and investigational anticancer small molecules within a complex spheroid model of solid tumors. . Complex spheroids include a stromal component modeled by human endothelial cells (HUVEC) and fibroblasts modeled by human mesenchymal stem cells (MSCs). The concentration ranges selected for each drug and investigational agent were based upon clinically achievable concentrations if the clinical Cmax of the agent was known.
Compounds. The drugs and investigational agents: alrizomadlin (APG-115; NSC831270), pelcitoclax (APG-1252; NSC835773), dasminapant (APG-1387;NSC834197), TAK-243 (NSC785004), copanlisib (NSC809693), olaparib (NSC753686), talazoparib (NSC767125), cobimetinib (NSC 768068), eltanexor (KPT-8602, NSC 794443), abemaciclib (NSC 768073), sotorasib (NSC818433), adagrasib (NSC 831453), MRTX-1133 (NSC 836407), Iadademestat (ORY1001, NSC 806812), and RMC-4630 (NSC839698), were obtained from the NCI Developmental Therapeutics Program Chemical Repository. The FDA-approved anticancer drug set is available from the Developmental Therapeutics Program at https://dtp.cancer.gov/organization/dscb/obtaining/available plates.htm. […] The stock solutions were prepared in dimethyl sulfoxide (DMSO, Sigma-Aldrich, St. Louis, MO, cat. D2650) at 800-fold the tested concentration and stored at -70 degrees C prior to their use. All drugs and investigational agents were tested over a range starting from a high concentration at or near the clinical Cmax and decreasing in half-log increments. If the clinical Cmax for an agent had not been determined, the highest concentration tested was 10 microM.
The patient-derived cancer (PDC) cell lines include five colon adenocarcinomas: 186277-243-T-J2-PDC, 616215-338-R-J1-PDC, 439559-082-T-J2-PDC, 463943-066-T-J2-PDC, and 519858-162-T-J1-PDC; three pancreatic carcinomas: 323965-272-R-J2-PDC, 521955-158-R6-J3-PDC, and 521955-158-R2-J5-PDC; two uterine sarcomas: 327498-152-R-J2-PDC and 993429-296-R-J1-PDC; two rhabdomyosarcomas: 755483-174-R-J1-PDC and 772245-204-R-J1-PDC; two soft tissue sarcomas: 126254-015-R-J1-PDC and 494315-158-R-J1-PDC; two malignant fibrous histiocytomas: 317291-083-R-J1-PDC and 596521-263-R-J1-PDC; two breast carcinomas: 171881-019-R-J1-PDC and 885512-296-R-J2-PDC; and one ovarian carcinoma: 6556581-035-R-J-PDC were obtained from the NCI PDMR, (https://pdmr.cancer.gov). The established cell lines HSSY-2 synovial sarcoma (RRID:CVCL 8719), SYO-1 synovial sarcoma (RRID:CVCL_7146), MPNST malignant peripheral neural sheath tumor were obtained from the Sloan Kettering Institute. The following established cell lines were purchased from the American Type Culture Collection (ATCC, Manassas, VA), Sor the received from the NCI repository:, PANC-1 pancreatic carcinoma (CRL-1469, RRID:CVCL_0480), OVCAR-5 ovarian carcinoma (RRID:CVCL_1628), OVCAR-8 ovarian carcinoma (RRID:CVCL_1629), , MCF-7 breast carcinoma (CRL-12584, RRID:CVCL_0031), MDA-MB-231 breast carcinoma (CRL-12532, RRID:CVCL_0062), NCI-H1876 small cell lung carcinoma (CRL-5902, RRID:CVCL_1503), NCI-H510A small cell lung carcinoma (HTB-184, RRID:CVCL_1565), NCI-H1417 (CRL-5869, RRID:CVCL_1469), and NCI-H196 small cell lung carcinoma (CRL-5823, RRID:CVCL_1509). Dr. Peter Houghton (Greehey Children's Cancer Research Institute, University of Texas Health Science Center, San Antonio, TX) provided Rh-18 rhabdomyosarcoma (RRID:CVCL_1659). Pooled donor human umbilical vein endothelial cells (HUVEC, Lonza, cat. CC-2519) and human mesenchymal stem cells (hMSC, Lonza, cat. PT-2501) were purchased from Lonza (Walkersville, MD).
Cell Culture. […]

[1] = compound alone, run of 10/11/2022

## C#Cc1c(F)ccc2cc(O)cc(-c3ncc4c(N5CC6CCC(C5)N6)nc(OCC56CCCN5CC(F)C6)nc4c3F)c12 (centres undefined)
Compound 0.0316 µM
  viability, T/C: 76.6% and 93.8% and 88.8%
Compound 0.1 µM
  viability, T/C: 87% and 113% and 69.2%
Compound 0.316 µM
  viability, T/C: 74.9% and 107% and 83.5%
Compound 1 µM
  viability, T/C: 61.2% and 94.7% and 70.7%
Compound 3.16 µM
  viability, T/C: 88% and 93.3% and 87.2%
Compound 10 µM
  viability, T/C: 50% and 97.8% and 110%
Curve of compound
  IC50: > 10 µM

## C=C(F)C(=O)N1CCN(c2nc(OCC3CCCN3C)nc3c2CCN(c2cccc4cccc(Cl)c24)C3)CC1CC#N (centres undefined)
Compound 0.0316 µM
  viability, T/C: 65.6% and 93.2% and 99.3%
Compound 0.1 µM
  viability, T/C: 75% and 68.3% and 86.5%
Compound 0.316 µM
  viability, T/C: 90.8% and 73% and 75.3%
Compound 1 µM
  viability, T/C: 85% and 68.2% and 94.8%
Compound 3.16 µM
  viability, T/C: 48.5% and 60.2% and 82.2%
Curve of compound
  IC50: 2.99 µM and > 10 µM

## C=CC(=O)N1CCN(c2nc(=O)n(-c3c(C)ccnc3C(C)C)c3nc(-c4c(O)cccc4F)c(F)cc23)C(C)C1 (centres undefined)
Compound 0.0316 µM
  viability, T/C: 99.3% and 91.7% and 80.4%
Compound 0.1 µM
  viability, T/C: 81% and 76.5% and 90.9%
Compound 0.316 µM
  viability, T/C: 99% and 90.2% and 92.3%
Compound 1 µM
  viability, T/C: 87.4% and 78.7% and 108%
Compound 3.16 µM
  viability, T/C: 104% and 121% (2×)
Compound 10 µM
  viability, T/C: 101% and 143% and 119%
Curve of compound
  IC50: > 10 µM

## CCN1C(C(=O)NC23CCC(C(=O)O)(CC2)CC3)C(c2cccc(Cl)c2F)C2(C(=O)Nc3cc(Cl)ccc32)C12CCCCC2 (centres undefined)
Compound 0.00949 µM
  viability, T/C: 86.6% and 74.5%
[1]
  IC50: > 3 µM
Curve of compound
  IC50: 1.81 µM and > 3 µM

## CCN1CCN(Cc2ccc(Nc3ncc(F)c(-c4cc(F)c5nc(C)n(C(C)C)c5c4)n3)nc2)CC1
Compound 0.00316 µM
  viability, T/C: 73% and 74.2% and 85.2%
Compound 0.01 µM
  viability, T/C: 91.6% and 72.8% and 69.6%
Compound 0.0316 µM
  viability, T/C: 92.8% and 78.2% and 78.8%
Compound 0.1 µM
  viability, T/C: 70.1% and 54% and 60.7%
Compound 0.316 µM
  viability, T/C: 84.9% and 63% and 78.3%
Compound 1 µM
  viability, T/C: 92.1% and 65.1% and 69%
Curve of compound
  IC50: > 1 µM

## CNC(C)C(=O)NC1CN(S(=O)(=O)c2cccc(S(=O)(=O)N3CCC4CCC(C(=O)NC(c5ccccc5)c5ccccc5)N4C(=O)C(NC(=O)C(C)NC)C3)c2)CCC2CCC(C(=O)NC(c3ccccc3)c3ccccc3)N2C1=O (centres undefined)
Curve of compound
  IC50: > 1 µM

## COc1c(OCCCN2CCOCC2)ccc2c3n(c(=NC(=O)c4cnc(N)nc4)nc12)CCN3
Compound 0.00316 µM
  viability, T/C: 84.8% and 70.3% and 54.3%
Compound 0.01 µM
  viability, T/C: 97% and 81% and 50.6%
Compound 0.0316 µM
  viability, T/C: 70.7% and 52.5% and 38.8%
Compound 0.1 µM
  viability, T/C: 39.8% and 39.5% and 13.7%
Compound 0.316 µM
  viability, T/C: 31.4% and 24.9% and 9.45%
Compound 1 µM
  viability, T/C: 24% and 18.9% and 5.21%
Curve of compound
  IC50: 0.0687 µM and 0.0495 µM and 0.0115 µM

## Cc1c(S(C)(=O)=O)c(-c2cc(F)cc(N3CCN(c4ccc(NS(=O)(=O)c5ccc(NC(CCN6CCC(C(=O)OCCCP(=O)(O)O)CC6)CSc6ccccc6)c(S(=O)(=O)C(F)(F)F)c5)cc4)CC3)c2)c(-c2ccc(Cl)cc2)n1C(C)C (centres undefined)
[1]
  IC50: > 10 µM

## Cc1nc(N2CCC3(CC2)COC(C)C3N)c(CO)nc1Sc1ccnc(N)c1Cl (centres undefined)
Compound 0.00949 µM
  viability, T/C: 64.8% and 95.2% and 81.6%
Compound 0.03 µM
  viability, T/C: 69.3% and 115% and 93.2%
Compound 0.0949 µM
  viability, T/C: 81% and 125% and 89.5%
Compound 0.3 µM
  viability, T/C: 48.4% and 109% and 92%
Compound 0.949 µM
  viability, T/C: 55.7% and 115% and 93.5%
Compound 3 µM
  viability, T/C: 18.5% and 86.6% and 80.5%
Curve of compound
  IC50: 0.964 µM and > 3 µM

## Cn1ncnc1[C@H]1c2n[nH]c(=O)c3cc(F)cc(c23)N[C@@H]1c1ccc(F)cc1
Compound 0.000316 µM
  viability, T/C: 96.5% and 77% and 100%
Compound 0.001 µM
  viability, T/C: 85.1% and 66.4% and 78.8%
Compound 0.00316 µM
  viability, T/C: 81.7% and 67.3% and 52.8%
Compound 0.01 µM
  viability, T/C: 80.5% and 61.2% and 65.7%
Compound 0.0316 µM
  viability, T/C: 70% and 42.6% and 64.6%
Compound 0.1 µM
  viability, T/C: 75.9% and 56.8% and 44%
Curve of compound
  IC50: > 0.1 µM and 0.0307 µM

## NC(=O)C(=Cn1cnc(-c2cc(C(F)(F)F)cc(C(F)(F)F)c2)n1)c1cncnc1
Compound 0.000949 µM
  viability, T/C: 66.2% and 56.3% and 21.6%
Compound 0.003 µM
  viability, T/C: 90% and 89% and 18%
Compound 0.00949 µM
  viability, T/C: 81.3% and 73.5% and 18.6%
Compound 0.03 µM
  viability, T/C: 67.2% and 38.9% and 20.1%
Compound 0.0949 µM
  viability, T/C: 61.8% and 57.6% and 17.8%
Compound 0.3 µM
  viability, T/C: 53.9% and 40.3% and 22.3%
